According to patent publication US20130310416A1, “Methods and Compositions for Preventing or Treating Age-Related Diseases” (Tartis-Aging, LLC, priority 2006, published 2013):

How the values were obtained:
tumor growth = conditions: in vitro and in vivo models; cited from earlier work
WI-38 fibroblasts = assay: doxorubicin exposure, induction of cell senescence; format: cell-based, human; conditions: exposure to doxorubicin, FIG. 2
Protocol: To illustrate the relationship between the TOR pathway and cell senescence, experiments were performed using WI-38 fibroblasts, a cell line that is commonly used to investigate cell senescence (Sarraj et al., 2001). […] Cell senescence is characterized by a large and flat cell morphology, beta-galactosidase expression in the cytoplasm as a terminal, non-replicative condition.

rodents = rodents (Anisimov et al., 2005); cited from earlier work
[1] = rapamycin administration (Kahan, 2004; Rodriguez et al., 2006); cited from earlier work

For `CO[C@H]1C[C@@H]2CC[C@@H](C)[C@@](O)(O2)C(=O)C(=O)N2CCCC[C@H]2C(=O)O[C@H]([C@H](C)C[C@@H]2CC[C@@H](OC(=O)C(C)(CO)CO)[C@H](OC)C2)CC(=O)[C@H](C)/C=C(\C)[C@@H](O)[C@@H](OC)C(=O)[C@H](C)C[C@H](C)/C=C/C=C/C=C/1C` [CCI-779, Rapamycin 42-ester with 3-hydroxy-2-(hydroxymethyl)-2-methylpropionic acid], the “effect on tumor growth” value (tumor growth) is given as “significant inhibitory effects on tumor growth”.

In the case of `COc1cccc2c1C(=O)c1c(O)c3c(c(O)c1C2=O)C[C@@](O)(C(=O)CO)C[C@@H]3O[C@H]1C[C@H](N)[C@H](O)[C@H](C)O1` [doxorubicin], the “induction of cell senescence” value (WI-38 fibroblasts) is reported as “induces accelerated cell senescence”.

For `CN(C)C(=N)N=C(N)N` [metformin], the life span (rodents) is listed as “extend life span”.

In the case of `[H]/N=C(/N)N/C(=N/[H])NCCc1ccccc1` [phenformin], the life span (rodents) is listed as “extend life span”.

In the case of `CO[C@H]1C[C@@H]2CC[C@@H](C)[C@@](O)(O2)C(=O)C(=O)N2CCCC[C@H]2C(=O)O[C@H]([C@H](C)C[C@@H]2CC[C@@H](O)[C@H](OC)C2)CC(=O)[C@H](C)/C=C(\C)[C@@H](O)[C@@H](OC)C(=O)[C@H](C)C[C@H](C)/C=C/C=C/C=C/1C` [rapamycin], the “most common side effect” value [1] is listed as “increase of blood lipids”.
